Laboratory results taken from patent US20260256782A1, “COMBINATION THERAPIES COMPRISING MYC MODULATION” (FLAGSHIP PIONEERING INNOVATIONS V, INC., priority 2022, published 2026).
Like-named read-outs stand apart in the source and are kept apart here. Blank lines part the entries; values can stand above or below the molecule they belong to.

Columns and labels:
H1975 cells = experiment: cells; details: Homo sapiens, NCI-H1975, 72 h, read-out: IC50, growth inhibition (cell viability)
From the text: (§1) The CellTiter Glo (Promega) assay was used according to manufacturer's instructions to assess cell viability. […] Odyssey CLx Imaging System (LICOR) using near-infrared (NIR) fluorescence was used to capture and quantify the protein images.

Myc protein in PC9 cells = experiment: Myc protein by Western blot, osimertinib and/or MR-32054; format: cell-based; details: PC9, 48 h, 1 μM osimertinib and/or 0.5 μg/ml MR-32054 in SSOP LNPs, normalized to untreated
PC9 cells = experiment: Cell viability (CellTiter Glo), osimertinib with control or MR-32054; format: cell-based; details: Homo sapiens, PC-9, 72 h; read-out: IC50, reduction of viability
From the text: as §1

[1] = system: osimertinib-resistant cell lines derived from H1975 (OsimR_1.25 and OsimR_1.5); experiment: Cell viability (CellTiter Glo) after osimertinib or MR-32380 in osimertinib-resistant lines; format: cell-based; details: OsimR_1.25 and OsimR_1.5, 72 hours, increasing doses
Procedure: Cell viability was assessed using the CellTiter Glo (Promega) assay used according to manufacturer's instructions.

[2] = system: MYC protein in H1975 parental cells; experiment: MYC protein level by JESS system; format: cell-based; details: 48 hours, 1 μM osimertinib or 1 μg/ml MR-32380 in SSOP
From the text: (§2) MYC protein levels were assess using a JESS system (Protein Simple). A 12-230 kDa pre-filled plate (Protein Simple) was loaded with protein lysate, antibody mix (MYC: Cell signaling technologies, actin: Cell signaling technologies, Goat anti-rabbit of mouse secondary antibodies conjugated with HRP, or fluorescent marker), and luminol master mix. The loaded plate and capillary cartridge (Protein Simple) were then transferred to the JESS system (Protein Simple) for imaging and quantification following manufacturer's protocol.

[3] = system: MYC protein in osimertinib-resistant cell lines derived from H1975 (OsimR_1.25 and OsimR_1.5); experiment: MYC protein level by JESS system; format: cell-based; details: osimertinib resistant H1975 cells, 48 hours, 1 μM osimertinib or 1 μg/ml MR-32380 in SSOP
From the text: as §2

[4] = system: subcutaneous H1975 tumors with sensitizing EGFR mutations (L858R, T790M); experiment: H1975 subcutaneous tumor model, tumor growth; parameters: species or system mice; details: mouse, in vivo
Procedure: Tumor growth was measured throughout the experiment (FIG. 15).
The length and width of tumors were measured three times weekly. Tumor volumes were calculated as width^2×length/2. Body weights were measured daily.

Hep 3B cells = experiment: Cell viability (Celltiter-Glo), lenvatinib in combination with bicistronic ZF9-MQ1_ZF3-KRAB DS; Bliss synergy (SynergyFinder 2.0); format: cell-based; details: Homo sapiens, Hep3B, 72 h
Procedure: (§3) […] Cell viability (Celltiter-Glo) levels were assessed 72 hours after treatment. Bliss synergy scores calculated using SyngeryFinder 2.0 were used to determine combinatorial effect.
(§4) Bliss synergy scores calculated using SynergyFinder 2.0 were used to determine combinatorial effect. The degree of combination synergy, or antagonism, is quantified by comparing the observed drug combination response against the expected response, calculated using a reference model that assumes no interaction between drugs. The Bliss independence model assumes a stochastic process in which two drugs elicit their effects independently, and the expected combination effect can be calculated based on the probability of independent events. […] Bliss synergy scores plus lenvatinib for Hep 3B and SK-HEP-1 were 5.37 and 12.77.

SK-HEP-1 cells = experiment: as above; format: cell-based; details: Homo sapiens, SK-HEP1, 72 h
Procedure: as §3, §4

IC50 (H1975 cells): 140 nM
SMILES: CC(=O)Nc1cccc(-n2c(=O)n(C3CC3)c(=O)c3c(Nc4ccc(I)cc4F)n(C)c(=O)c(C)c32)c1 [trametinib]

SMILES: C=CC(=O)Nc1cc(Nc2nccc(-c3cn(C)c4ccccc34)n2)c(OC)cc1N(C)CCN(C)C [osimertinib]
reduction of Myc protein levels (Myc protein in PC9 cells): 80%
IC50 (PC9 cells): 420 nM
cell viability (sensitivity) [1]: resistant to osimertinib
MYC protein level [2]: decreased MYC protein level
MYC protein level [3]: not affected
tumor growth (tumor volume) [4]: inhibit tumor growth

IC50 (SK-HEP-1 cells; SK-HEP-1, 72 hours, lenvatinib without DS, read-out: IC50 of lenvatinib): 17700 nM
IC50 (SK-HEP-1 cells; SK-HEP-1, ZF9-MQ1_ZF3-KRAB concentration 0 μg/mL, cell viability 72 hours after treatment, read-out: Lenvatinib IC50): 17700 nM
IC50 (SK-HEP-1 cells; SK-HEP-1, ZF9-MQ1_ZF3-KRAB concentration 0.1 μg/mL, cell viability 72 hours after treatment, read-out: Lenvatinib IC50): 13300 nM
IC50 (SK-HEP-1 cells; SK-HEP-1, ZF9-MQ1_ZF3-KRAB concentration 0.6 μg/mL, cell viability 72 hours after treatment, read-out: Lenvatinib IC50): 3860 nM
IC50 (SK-HEP-1 cells; SK-HEP-1, ZF9-MQ1_ZF3-KRAB concentration 1.0 μg/mL, cell viability 72 hours after treatment, read-out: Lenvatinib IC50): 1910 nM
SMILES: COc1cc2nccc(Oc3ccc(NC(=O)NC4CC4)c(Cl)c3)c2cc1C(N)=O [lenvatinib]
IC50 (Hep 3B cells; ZF9-MQ1_ZF3-KRAB concentration 0 μg/mL, cell viability 72 hours after treatment, read-out: Lenvatinib IC50): 533 nM
IC50 (Hep 3B cells; ZF9-MQ1_ZF3-KRAB concentration 0.06 μg/mL, cell viability 72 hours after treatment, read-out: Lenvatinib IC50): 309 nM
IC50 (Hep 3B cells; ZF9-MQ1_ZF3-KRAB concentration 0.6 μg/mL, cell viability 72 hours after treatment, read-out: Lenvatinib IC50): 23 nM
IC50 (Hep 3B cells; ZF9-MQ1_ZF3-KRAB concentration 1.0 μg/mL, cell viability 72 hours after treatment, read-out: Lenvatinib IC50): 48 nM
IC50 (Hep 3B cells; lenvatinib without DS, read-out: half maximal inhibitory concentration (IC50) of lenvatinib): 533 nM
